Experiment [1] has as its system human coronavirus (HCoV-229E). The format is cell-based. As to conditions: HMO 2 mg/ml or 5 mg/ml for 16 hours before HCoV-229E (MOI 0.01), 48 hours of viral infection (FIG. 4).
For experiment [2], the system named is Type I (IFN-α1, IFN-β1) and Type III interferons (IFN-λ1, IFN-λ2, and IFN-λ3). Kind of experiment: Host-cell interferon response during HCoV-229E infection of A549 cells (real-time PCR). Format: cell-based, human. The note with it: HMO 2 mg/ml pre-incubated 16 hours, MOI 0.01, 24 hours post infection (FIG. 6). Background: Real-time PCR tracks product formation cycle by cycle.

The next experiment has as its system Tulane virus. Kind of experiment: Tulane virus infection of MK2-LLC cells after HMO pre-incubation (imaging of adherent cells). Format: cell-based, monkey. The note with it: HMO 2 mg/ml pre-incubated 16 hours, MOI 0.001, compared to cells in the absence of an HMO (FIG. 1).
Experiment [3] relates to human coronavirus (HCoV-229E). Briefly: HCoV-229E infection of A549 cells after HMO pre-incubation (imaging of adherent cells). Format: cell-based. As to conditions: HMO 2 mg/ml pre-incubated 16 hours, MOI 0.01, up to three days post-infection (FIG. 2). On the procedure:
Monkey kidney epithelial (MK2-LLC) cells or human alveolar epithelial (A549) cells were seeded in 12-well plates at 1E5 cells per well.
24-hours post incubation, cells were washed with serum-free media and incubated with the particular HMO at 2 mg/ml final concentration.
16-hours post HMO incubation, the particular virus (for MK2-LLC cells this was Tulane virus, at a multiplicity of infection (MOI) of 0.001; for A549 cells this was human coronavirus (HCoV-229E), at an MOI of 0.01) was added and infection was allowed to proceed.
Images of adherent (live) cells were recorded two-days post infection after aspirating and washing cells with PBS. All wells were washed on Day 3 prior to imaging.
It was hypothesized that HMOs enhance cellular adhesion, cell structural integrity and modulate tight junction proteins as a generalized function regardless of the organ from which the epithelial cells are derived, and this function in turn alters the response to pathogenic challenges. […] As proof-of-concept, human alveolar epithelial (A549) cells were incubated in the presence of physiological levels of an HMO (2′-FL or 3′-SL) for 16 hours and infected the cells with a human coronavirus (HCoV-229E).

Experiment [4] relates to human coronavirus (HCoV-229E). The format is cell-based. The note with it: A549 cells, MOI 0.01, three days post infection (FIG. 3).
[5] abbreviates: HMO 2 mg/ml added simultaneously with HCoV-229E ('During').
Where [6] appears, read: HMO 2 mg/ml added two hours post viral adsorption ('After').

Read-outs that look alike come from different tables or passages of the source.

Consider 2′-Fucosyllactose [2′-FL], for which the “A549 cell viability (live cell fluorescence, Calcein-AM)” value in experiment [1] was “retain viability”. The “Type I and Type III interferon response (fold-induction) during HCoV-229E infection” value in experiment [2] was “dramatically attenuated”. In the experiment on Tulane virus, the “cellular adherence and cell viability in the presence of Tulane virus” value (shortened to “cellular adherence and cell viability”) was “increased cellular adherence and cell viability”. In experiment [3], the “A549 epithelial cell morphology after HCoV-229E infection” value is given as “little or no change in A549 epithelial cell morphology”. Also, the “loss of adherent cells, virus-mediated loss of cell viability and cytopathogenic effects” value was “reduced the loss of adherent cells, the virus-mediated loss of cell viability and the cytopathogenic effects” in experiment [4] (setting [5]); “reduced the loss of adherent cells, the virus-mediated loss of cell viability and the cytopathogenic effects” in experiment [4] (setting [6]).

Consider `CC(=O)N[C@H]1[C@H]([C@H](O)[C@H](O)CO)O[C@@](O[C@H]2[C@@H](O)[C@@H](CO)O[C@@H](O[C@H]3[C@H](O)[C@@H](O)C(O)O[C@@H]3CO)[C@@H]2O)(C(=O)O)C[C@@H]1O` (stereo partly shown) [3′-SL, 3′-sialyllactose], for which the “A549 cell viability (live cell fluorescence, Calcein-AM)” value in experiment [1] is recorded as “retain viability”. Also, the “Type I and Type III interferon response (fold-induction) during HCoV-229E infection” value in experiment [2] was “dramatically attenuated”. Further, the “cellular adherence and cell viability” value with Tulane virus was “increased cellular adherence and cell viability”. The “A549 epithelial cell morphology after HCoV-229E infection” value in experiment [3] is given as “little or no change in A549 epithelial cell morphology”. For the same compound, the “loss of adherent cells, virus-mediated loss of cell viability and cytopathogenic effects” value in experiment [4] (setting [5]) was “reduced the loss of adherent cells, the virus-mediated loss of cell viability and the cytopathogenic effects”; in experiment [4] (setting [6]) it was “reduced the loss of adherent cells, the virus-mediated loss of cell viability and the cytopathogenic effects”.

Regarding Lacto-N-fucopentaose I [LNFP I], in the experiment with Tulane virus, the “cellular adherence and cell viability” value is “increased cellular adherence and cell viability”.

The values are drawn from patent US20230190777A1, “MAMMALIAN MILK OLIGOSACCHARIDES PREVENT VIRAL INFECTION OF HUMAN EPITHELIUM” (The Regents of the University of California, priority 2020, published 2023).
